Source: PubChem BioAssay (NCI)
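Compound exposure: 48 hours, 5 concentrations, 96-well plates. The concentration for full growth arrest is given as TGI.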

Assays:
Test in all cases: NCI tumour cell line growth inhibition, 48 h
786-0 renal = system: 786-0 renal
A498 renal = system: A498 renal
A549 NSCLC = system: A549 NSCLC
ACHN renal = system: ACHN renal
BT-549 breast = system: BT-549 breast
CAKI-1 renal = system: CAKI-1 renal
CCRF-CEM leukemia = system: CCRF-CEM leukemia
COLO 205 colon = system: COLO 205 colon
DU-145 prostate = system: DU-145 prostate
EKVX NSCLC = system: EKVX NSCLC
HCC-2998 colon = system: HCC-2998 colon
HCT-116 colon = system: HCT-116 colon
HCT-15 colon = system: HCT-15 colon
HL-60(TB) leukemia = system: HL-60(TB) leukemia
HOP-62 NSCLC = system: HOP-62 NSCLC
HOP-92 NSCLC = system: HOP-92 NSCLC
HS 578T breast = system: HS 578T breast
HT29 colon = system: HT29 colon
IGROV1 ovarian = system: IGROV1 ovarian
K-562 leukemia = system: K-562 leukemia
KM12 colon = system: KM12 colon
LOX IMVI melanoma = system: LOX IMVI melanoma
M14 melanoma = system: M14 melanoma
MALME-3M melanoma = system: MALME-3M melanoma
MCF7 breast = system: MCF7 breast
MDA-MB-231 breast = system: MDA-MB-231 breast
MDA-MB-435 = system: MDA-MB-435
MDA-N = system: MDA-N
MOLT-4 leukemia = system: MOLT-4 leukemia
NCI-H226 lung = system: NCI-H226 lung
NCI-H23 lung = system: NCI-H23 lung
NCI-H460 lung = system: NCI-H460 lung
NCI-H522 lung = system: NCI-H522 lung
NCI/ADR-RES ovarian = system: NCI/ADR-RES ovarian
OVCAR-3 ovarian = system: OVCAR-3 ovarian
OVCAR-4 ovarian = system: OVCAR-4 ovarian
OVCAR-5 ovarian = system: OVCAR-5 ovarian
OVCAR-8 ovarian = system: OVCAR-8 ovarian
PC-3 prostate = system: PC-3 prostate
RPMI-8226 leukemia = system: RPMI-8226 leukemia
RXF 393 renal = system: RXF 393 renal
SF-268 CNS = system: SF-268 CNS
SF-295 CNS = system: SF-295 CNS
SF-539 CNS = system: SF-539 CNS
SK-MEL-28 melanoma = system: SK-MEL-28 melanoma
SK-OV-3 ovarian = system: SK-OV-3 ovarian
SN12C renal = system: SN12C renal
SNB-19 CNS = system: SNB-19 CNS
SR leukemia = system: SR leukemia
SW-620 colon = system: SW-620 colon
T-47D breast = system: T-47D breast
TK-10 renal = system: TK-10 renal
U251 CNS = system: U251 CNS
UACC-257 melanoma = system: UACC-257 melanoma
UACC-62 melanoma = system: UACC-62 melanoma
UO-31 renal = system: UO-31 renal
SK-MEL-2 melanoma = system: SK-MEL-2 melanoma
SK-MEL-5 melanoma = system: SK-MEL-5 melanoma

## Cc1nc(C)c(N2CCN(C(=O)NC(CCC(=O)O)C(=O)O)CC2)c(=O)[nH]1 (stereo not drawn)
786-0 renal
  TGI: > 100 µM
A498 renal
  TGI: > 100 µM
A549 NSCLC
  TGI: > 100 µM
ACHN renal
  TGI: > 100 µM
BT-549 breast
  TGI: > 100 µM
CAKI-1 renal
  TGI: > 100 µM
CCRF-CEM leukemia
  TGI: > 100 µM
COLO 205 colon
  TGI: > 100 µM
DU-145 prostate
  TGI: > 100 µM
EKVX NSCLC
  TGI: > 100 µM
HCC-2998 colon
  TGI: > 100 µM
HCT-116 colon
  TGI: > 100 µM
HCT-15 colon
  TGI: > 100 µM
HL-60(TB) leukemia
  TGI: > 100 µM
HOP-62 NSCLC
  TGI: > 100 µM
HOP-92 NSCLC
  TGI: > 100 µM
HS 578T breast
  TGI: > 100 µM
HT29 colon
  TGI: > 100 µM
IGROV1 ovarian
  TGI: > 100 µM
K-562 leukemia
  TGI: > 100 µM
KM12 colon
  TGI: > 100 µM
LOX IMVI melanoma
  TGI: > 100 µM
M14 melanoma
  TGI: > 100 µM
MALME-3M melanoma
  TGI: > 100 µM
MCF7 breast
  TGI: > 100 µM
MDA-MB-231 breast
  TGI: > 100 µM
MDA-MB-435
  TGI: > 100 µM
MDA-N
  TGI: > 100 µM
MOLT-4 leukemia
  TGI: > 100 µM
NCI-H226 lung
  TGI: > 100 µM
NCI-H23 lung
  TGI: > 100 µM
NCI-H460 lung
  TGI: > 100 µM
NCI-H522 lung
  TGI: > 100 µM
NCI/ADR-RES ovarian
  TGI: > 100 µM
OVCAR-3 ovarian
  TGI: > 100 µM
OVCAR-4 ovarian
  TGI: > 100 µM
OVCAR-5 ovarian
  TGI: > 100 µM
OVCAR-8 ovarian
  TGI: > 100 µM
PC-3 prostate
  TGI: > 100 µM
RPMI-8226 leukemia
  TGI: > 100 µM
RXF 393 renal
  TGI: > 100 µM
SF-268 CNS
  TGI: > 100 µM
SF-295 CNS
  TGI: > 100 µM
SF-539 CNS
  TGI: > 100 µM
SK-MEL-28 melanoma
  TGI: > 100 µM
SK-OV-3 ovarian
  TGI: > 100 µM
SN12C renal
  TGI: > 100 µM
SNB-19 CNS
  TGI: > 100 µM
SR leukemia
  TGI: > 100 µM
SW-620 colon
  TGI: > 100 µM
T-47D breast
  TGI: > 100 µM
TK-10 renal
  TGI: > 100 µM
U251 CNS
  TGI: > 100 µM
UACC-257 melanoma
  TGI: > 100 µM
UACC-62 melanoma
  TGI: > 100 µM
UO-31 renal
  TGI: > 100 µM

## COc1ccc2c(c1OC)C(Br)CCC(Br)(Br)C2=O (stereo not drawn)
786-0 renal
  TGI: 15.3 µM
A498 renal
  TGI: 29.4 µM
A549 NSCLC
  TGI: 29 µM
ACHN renal
  TGI: 3.81 µM
BT-549 breast
  TGI: 20.3 µM
CAKI-1 renal
  TGI: 3.24 µM
COLO 205 colon
  TGI: 10.1 µM
DU-145 prostate
  TGI: 24.9 µM
EKVX NSCLC
  TGI: 29.4 µM
HCC-2998 colon
  TGI: 23.7 µM
HCT-116 colon
  TGI: 17.3 µM
HCT-15 colon
  TGI: 25.6 µM
HL-60(TB) leukemia
  TGI: 23.7 µM
HOP-62 NSCLC
  TGI: 36.7 µM
HOP-92 NSCLC
  TGI: 9.44 µM
HS 578T breast
  TGI: 44.2 µM
HT29 colon
  TGI: 17.6 µM
IGROV1 ovarian
  TGI: 18.8 µM
K-562 leukemia
  TGI: 11.6 µM
KM12 colon
  TGI: 32.2 µM
LOX IMVI melanoma
  TGI: 10.8 µM
M14 melanoma
  TGI: 18.3 µM
MALME-3M melanoma
  TGI: 22.6 µM
MCF7 breast
  TGI: 21.3 µM
MDA-MB-231 breast
  TGI: 29.9 µM
MDA-MB-435
  TGI: 19.3 µM
MDA-N
  TGI: 14.2 µM
MOLT-4 leukemia
  TGI: 8.32 µM
NCI-H226 lung
  TGI: 30.1 µM
NCI-H23 lung
  TGI: 22.8 µM
NCI-H460 lung
  TGI: 31 µM
NCI-H522 lung
  TGI: 3.38 µM
NCI/ADR-RES ovarian
  TGI: 40.2 µM
OVCAR-3 ovarian
  TGI: 30.2 µM
OVCAR-4 ovarian
  TGI: 18.9 µM
OVCAR-5 ovarian
  TGI: 31.8 µM
OVCAR-8 ovarian
  TGI: 21.9 µM
PC-3 prostate
  TGI: 24.2 µM
RPMI-8226 leukemia
  TGI: 26.1 µM
RXF 393 renal
  TGI: 15.1 µM
SF-268 CNS
  TGI: 27.4 µM
SF-295 CNS
  TGI: 32.5 µM
SF-539 CNS
  TGI: 11.7 µM
SK-MEL-2 melanoma
  TGI: 28 µM
SK-MEL-28 melanoma
  TGI: 29.3 µM
SK-MEL-5 melanoma
  TGI: 14.7 µM
SK-OV-3 ovarian
  TGI: 31.2 µM
SN12C renal
  TGI: 16.7 µM
SNB-19 CNS
  TGI: 28.9 µM
SR leukemia
  TGI: 4.22 µM
SW-620 colon
  TGI: 6.61 µM
T-47D breast
  TGI: 43 µM
TK-10 renal
  TGI: 19.4 µM
U251 CNS
  TGI: 30.4 µM
UACC-257 melanoma
  TGI: 27.7 µM
UACC-62 melanoma
  TGI: 27.7 µM
UO-31 renal
  TGI: 14 µM
